In patent EP0943615A1, “1,4-DIHYDROPYRIDINE DERIVATIVES” (Nikken Chemicals Company, Limited, priority 1996, dated 1998):

System: VJ-300 cells
Test: In vitro test of action suppressing proliferation of cancer cells, combined administration of doxorubicin (colony formation), resistant cells
Type: cell-based, Human
Settings: ADM alone or ADM + test compound 1 µg/ml, LD50 of ADM relative to ADM alone in KB cells = 1, 7 days incubation, colony count
Experimental: Human rhinopharynx cancer derived KB cells (i.e., sensitive cells) and their multi-drug resistant clone VJ-300 cells (i.e., resistant cells) were used as the test cells. As the incubation solutions, use was made of 10% fetal calf serum (Flow Laboratories) and Eagle MEM medium (Nissui Seiyaku) containing 0.292 mg/ml of L-glutamine (Flow Laboratories). The tests of the action for overcoming resistance to anti-cancer drugs or action for increasing the effect of the anti-cancer drug with the combined administration of the anti-cancer drug doxorubicin (i.e., adriamycin, ADM) and the test compound were performed as follows:
The test cells were suspended in incubation solutions and adjusted to a cell density of about 200 cells/ml. The cell suspensions were injected in 2 ml amounts into petri dishes and were incubated in a CO2 gas incubator (5% CO2, 95% air) at 37°C for 24 hours. Then, 5 µl of a predetermined concentration of the aqueous ADM solution and a predetermined concentration of a DMSO solution of the test compound were added, then the incubation was continued for a further 7 days. After the end of the incubation, the result was immobilized with methanol, Giemsa stained and measured for the number of colonies per dish. The results were used to prepare a volume-reaction curve. […] The results are shown in Table 8 to Table 10 using the concentration of LD50 of ADM in the ADM alone group by KB cells as the resistance degree 1 and calculating the resistances of the following LD50 concentrations as relative ratios. […]

Structure (SMILES) | Degree of resistance for ADM VJ-300
COC(=O)C1=C(c2ccc(-n3ccnc3)cc2)NC(C)=C(C(=O)OC/C=C/c2cccnc2)C1C#Cc1ccccc1 (centres unmarked) [Compound 40, 2-[4-(1-imidazolyl)phenyl]-6-methyl-4-phenylethynyl-1,4-dihydropyridin-3,5-dicarboxylate 3-methylester, 5-[(E)-3-(3-pyridyl)-2-propenyl]ester] | 2.5
CCOC(=O)C1=C(c2ccc(-n3c(C)nc4cnccc43)cc2)NC(C)=C(C(=O)OC/C=C(/c2cccnc2)c2cccs2)C1CCc1ccccc1 (centres unmarked) [Compound 20, 6-methyl-2-[4-(2-methylimidazo[4,5-c]pyridin-1-yl)phenyl]-4-(2-phenylethyl)-1,4-dihydropyridin-3,5-dicarboxylate 3-ethylester, 5-[(Z]-3-(3-pyridyl)-3-(2-thienyl)-2-propenyl]ester] | 1.6
CCOC(=O)C1=C(c2ccc(-n3c(C)nc4cnccc43)cc2)NC(C)=C(C(=O)OCCCc2cccnc2)C1CC(C)C (centres unmarked) [Compound 10, 6-methyl-2-[4-(2-methylimidazo[4,5-c]pyridin-1-yl)phenyl]-4-(2-methylpropyl)-1,4-dihdropyridin-3,5-dicarboxylate 3-ethylester, 5-[3-(3-pyridyl)propyl]ester] | 1.4
CCOC(=O)C1=C(c2ccc(-n3c(C)nc4cnccc43)cc2)NC(C)=C(C(=O)OC/C=C/c2cccnc2)C1CCc1ccsc1 (centres unmarked) [Compound 26, 6-methyl-2-[4-(2-methylimidazo[4,5-c]pyridin-1-yl)phenyl]-4-[2-(3-thienyl)ethyl)-1,4-dihydropyridin-3,5-dicarboxylate 3-ethylester, 5-[(E)-3-(3-pyridyl)-2-propenyl]ester] | 1.8
CCOC(=O)C1=C(c2cccc(-n3ccnc3)c2)NC(C)=C(C(=O)OC/C=C/c2cccnc2)C1/C=C/c1ccccc1 (centres unmarked) [Compound 36, 2-[3-(1-imidazolyl)phenyl]-6-methyl-4-[(E)-2-phenylethenyl]-1,4-dihydropyridin-3,5-dicarboxylate 3-ethylester, 5-[(E)-3-(3-pyridyl)-2-propenyl]ester] | 1.0
CCOC(=O)C1=C(c2ccc(-n3c(C)nc4cnccc43)cc2)NC(C)=C(C(=O)OC/C=C/c2cccnc2)C1CCC1CCCCC1 (centres unmarked) [Compound 28, 4-(2-cyclohexylethyl)-6-methyl-2-[4-(2-methylimidazo[4,5-c]pyridin-1-yl)phenyl]-1,4-dihydropyridin-3,5-dicarboxylate 3-ethylester, 5-[(E)-3-(3-pyridyl)-2-propenyl]ester] | 1.7
CCCCCC1C(C(=O)OCC=Cc2cccnc2)=C(C)NC(c2ccc(-n3c(C)nc4ncccc43)cc2)=C1C(=O)OCC (centres unmarked) [Compound 4, 6-methyl-2-[4-(2-methylimidazo[4,5-b]pyridin-1-yl)phenyl]-4-pentyl-1,4-dihydropyridin-3,5-dicarboxylate 3-ethylester, 5-[3-(3-pyridyl)-2-propenyl]ester] | 1.2
CCOC(=O)C1=C(c2ccc(N3CCOCC3)cc2)NC(C)=C(C(=O)OC/C=C/c2cccnc2)C1/C=C/c1ccccc1 (centres unmarked) [Compound 34, 6-methyl-2-(4-morpholinophenyl)-4-[(E)-2-phenylethenyl]-1,4-dihydropyridin-3,5-dicarboxylate 3-ethylester, 5-[(E)-3-(3-pyridyl)-2-propenyl]ester] | 3.0
CCOC(=O)C1=C(c2ccc(-n3c(C)nc4cnccc43)cc2)NC(C)=C(C(=O)OCCCC(=O)c2cccnc2)C1/C=C/c1ccccc1 (centres unmarked) [Compound 47, 6-methyl-2-[4-(2-methylimidazo[4,5-c]pyridin-1-yl)phenyl]-4-[(E)-2-phenylethenyl]-1,4-dihydropyridin-3,5-dicarboxylate 3-ethylester, 5-(3-nicotinoylpropyl)ester] | 1.2
CCOC(=O)C1=C(c2ccc(-n3c(C)nc4cnccc43)cc2)NC(C)=C(C(=O)OCCCc2cccnc2)C1CCc1ccccc1 (centres unmarked) [Compound 13, 6-methyl-2-[4-(2-methylimidazo[4,5-c]pyridin-1-yl)phenyl]-4-(2-phenylethyl)-1,4-dihydropyridin-3,5-dicarboxylate 3-ethylester, 5-[3-(3-pyridyl)propyl]ester] | 2.6
CCCCCC1C(C(=O)OCCCc2cccnc2)=C(C)NC(c2ccc(-n3c(C)nc4cnccc43)cc2)=C1C(=O)OCC (centres unmarked) [Compound 7, 6-methyl-2-[4-(2-methylimidazo[4,5-c]pyridin-1-yl)phenyl]-4-pentyl-1,4-dihydropyridin-3,5-dicarboxylate 3-ethylester, -5-[3-(3-pyridyl)propyl]ester] | 2.8
CCOC(=O)C1=C(c2ccc(-n3cnc4ccccc43)cc2)NC(C)=C(C(=O)OCCCC(=O)c2cccnc2)C1C=C1CCCCC1 (centres unmarked) [Compound 48, 4-cyclohexylidenemethyl-6-methyl-2-[4-(1-benzimidazolyl)phenyl]-1,4-dihydropyridin-3,5-dicarboxylate 3-ethylester, 5-(3-nicotinoylpropyl)ester] | 1.7
CCOC(=O)C1=C(c2ccc(-n3c(C)nc4cnccc43)cc2)NC(C)=C(C(=O)OCCCCCc2cccnc2)C1CCc1ccccc1 (centres unmarked) [Compound 18, 6-methyl-2-[4-(2-methylimidazo[4,5-c]pyridin-1-yl)phenyl]-4-(2-phenylethyl)-1,4-dihydropyridin-3,5-dicarboxylate 3-ethylester, 5-[5-(3-pyridyl)pentyl]ester] | 1.4
CCOC(=O)C1=C(c2ccc(-n3c(C)nc4ncccc43)cc2)NC(C)=C(C(=O)OC/C=C/c2cccnc2)C1/C=C/c1ccccc1Cl (centres unmarked) [Compound 22, 4-[(E)-2-(2-chlorophenyl]ethenyl]-6-methyl-2-[4-(2-methylimidazo[4,5-b]pyridin-1-yl)phenyl]-1,4-dihydropyridin-3,5-dicarboxylate 3-ethylester, 5-[(E)-3-(3-pyridyl)-2-propenyl]ester] | 1.7
CCCCCC1C(C(=O)OCCCCCc2cccnc2)=C(C)NC(c2ccc(-n3c(C)nc4cnccc43)cc2)=C1C(=O)OCC (centres unmarked) [Compound 17, 6-methyl-2-[4-(2-methylimidazo[4,5-c]pyridin-1-yl)phenyl]-4-pentyl-1,4-dihydropyridin-3,5-dicarboxylate 3-ethylester, 5-[5-(3-pyridyl)pentyl]ester] | 1.6
CCCCCC1C(C(=O)OC/C=C/c2cccnc2)=C(C)NC(c2cccc(-n3ccnc3)c2)=C1C(=O)OCC (centres unmarked) [Compound 37, 2-[3-(1-imidazolyl)phenyl]-6-methyl-4-pentyl-1,4-dihydropyridin-3,5-dicarboxylate 3-ethylester, 5-[(E)-3-(3-pyridyl)-2-propenyl]ester] | 2.5
CCOC(=O)C1=C(c2ccc(-n3c(C)nc4cnccc43)cc2)NC(C)=C(C(=O)OCCCC(=O)c2cccnc2)C1CCCC1CCCCC1 (centres unmarked) [Compound 45, 4-(3-cyclohexylpropyl)-6-methyl-2-[4-(2-methylimidazo[4,5-c]pyridin-1-yl)phenyl]-1,4-dihydropyridin-3,5-dicarboxylate 3-ethylester, 5-(3-nicotinoylpropyl)ester] | 2.6
